Measured values taken from PubChem BioAssay (NCI).
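Cultured in 96-well plates, cells were exposed to test compound for 48 hours across five concentrations. GI50 = concentration required for 50% inhibition of growth. TGI denotes the concentration required for complete inhibition of growth.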

What was measured:
Assay in all cases: growth of human tumour cells (NCI), 48 h
[1] = tested on: UACC-257 melanoma
[2] = tested on: 786-0 renal
[3] = tested on: SK-MEL-5 melanoma
[4] = tested on: UACC-62 melanoma
[5] = tested on: CCRF-CEM leukemia
[6] = tested on: RXF 393 renal
[7] = tested on: A498 renal
[8] = tested on: MCF7 breast
[9] = tested on: NCI-H460 lung
[10] = tested on: MOLT-4 leukemia

O=c1[nH]c(=O)n(C2CC(O)C(COP(=O)(OCc3ccc([N+](=O)[O-])o3)N(CCCCCl)CC(O)CO)O2)cc1F (centres undefined)
GI50 [1]: 21.3 nM | TGI [1]: 0.852 µM | GI50 [2]: 624 nM | TGI [2]: > 100 µM | GI50 [3]: 386 nM | TGI [3]: 4.49 µM | GI50 [4]: 138 nM | GI50 [5]: 10.2 nM | TGI [5]: > 100 µM | GI50 [6]: 24.3 nM | TGI [6]: 3.6 µM | GI50 [7]: 138 nM | TGI [7]: 39.1 µM | GI50 [8]: < 10 nM | TGI [8]: > 100 µM | GI50 [9]: < 47.4 nM | TGI [9]: > 100 µM | GI50 [10]: 285 nM | TGI [10]: > 100 µM

CNCCCNCCCCNCCCN1C(=O)c2ccc3c4c(ccc(c24)C1=O)C(=O)N(CCCNCc1ccccc1OC)C3=O
GI50 [1]: 1250 nM | TGI [1]: 8.07 µM | GI50 [2]: 3360 nM | TGI [2]: 29.8 µM | GI50 [3]: 813 nM | TGI [3]: 3 µM | GI50 [4]: 711 nM | TGI [4]: 5.06 µM | GI50 [5]: 3770 nM | TGI [5]: 39 µM | GI50 [6]: 3820 nM | TGI [6]: 19.3 µM | GI50 [7]: 1780 nM | TGI [7]: 13.3 µM | GI50 [8]: 2770 nM | TGI [8]: 13 µM | GI50 [9]: 2530 nM | TGI [9]: 12.1 µM | GI50 [10]: 5210 nM | TGI [10]: 38.5 µM

CN1CCN(C(=O)c2cc(-c3ccc4ncnc(N5CCc6cc(F)c(Cl)cc65)c4c3)cnc2N)CC1
GI50 [1]: 334 nM | TGI [1]: 3.52 µM | GI50 [2]: 220 nM | TGI [2]: 1.73 µM | GI50 [3]: 209 nM | TGI [3]: 0.476 µM | GI50 [4]: 177 nM | TGI [4]: 0.67 µM | GI50 [5]: 266 nM | TGI [5]: 4.92 µM | GI50 [6]: 92.2 nM | TGI [6]: 0.48 µM | GI50 [7]: 104 nM | TGI [7]: 0.361 µM | GI50 [8]: 99.2 nM | TGI [8]: 1.89 µM | GI50 [9]: 224 nM | TGI [9]: 9.14 µM | GI50 [10]: 127 nM | TGI [10]: 0.664 µM

COc1ccc(-c2cc(-c3ccc(C)cc3)nc3nc(=S)[nH]c(N)c23)cc1
GI50 [1]: 22800 nM | TGI [1]: 45.3 µM | GI50 [2]: 22400 nM | TGI [2]: 52.6 µM | GI50 [3]: 14100 nM | TGI [3]: 29.6 µM | GI50 [4]: 20600 nM | TGI [4]: 45.6 µM | GI50 [5]: 18800 nM | TGI [5]: 64.8 µM | GI50 [6]: 20500 nM | TGI [6]: 44.5 µM | GI50 [7]: 19200 nM | TGI [7]: 39.4 µM | GI50 [8]: 15800 nM | TGI [8]: 69.4 µM | GI50 [9]: 12000 nM | TGI [9]: 27.5 µM | GI50 [10]: 35600 nM | TGI [10]: 72.3 µM

O=C1OCC2=C1C(c1ccc(Cl)c(Cl)c1)c1cc3c(cc1N2CCO)OCCO3 (centres undefined)
GI50 [1]: 181 nM | TGI [1]: 19.4 µM | GI50 [2]: 277 nM | TGI [2]: 7.62 µM | GI50 [3]: 148 nM | TGI [3]: 6.37 µM | GI50 [4]: 192 nM | TGI [4]: 10.8 µM | GI50 [5]: 184 nM | TGI [5]: 16.7 µM | GI50 [6]: 116 nM | TGI [6]: 0.751 µM | GI50 [7]: 147 nM | TGI [7]: 1.84 µM | GI50 [8]: 208 nM | TGI [8]: > 50 µM | GI50 [9]: 192 nM | TGI [9]: 5.77 µM | GI50 [10]: 456 nM | TGI [10]: > 42.3 µM

CN[C@@H](C)C(=O)N[C@H](C(=O)N1CCC[C@H]1C(=O)Nc1sc(-c2ncco2)nc1-c1ccccc1)C1CCCCC1
GI50 [1]: 17500 nM | TGI [1]: 34 µM | GI50 [2]: 28200 nM | TGI [2]: > 67.2 µM | GI50 [3]: 9930 nM | TGI [3]: 24 µM | GI50 [4]: 18600 nM | TGI [4]: 39.2 µM | GI50 [5]: 32500 nM | TGI [5]: > 100 µM | GI50 [6]: 8510 nM | TGI [6]: 32.3 µM | GI50 [7]: 26600 nM | TGI [7]: > 88 µM | GI50 [8]: 21700 nM | TGI [8]: > 100 µM | GI50 [9]: 37700 nM | TGI [9]: > 100 µM | GI50 [10]: 29200 nM | TGI [10]: 88.1 µM
